Here are results for 21 compounds from patent publication US11999805B1, “Peptide inhibitors of CRISPR-Cas9” (priority 2020, dated 2024).

Entries after “also recorded” stand apart in the source; their conditions may differ. Like-named read-outs stand apart in the source and are kept apart here. Residues, ends and D or L forms follow the SMILES beside them. No end group written: not given here.

As a reminder, the IC50 is the concentration at which inhibition is half-maximal.

In data set [1] the target is T1, SpyCas9 (Streptococcus pyogenes serotype M1, UniProt Q99ZW2). It is filed as biochemical, S. pyogenes. The settings on record: for IC50: read-out: SpyCas9 IC50, FRET cleavage assay, concentration curves, 0.5 μM Cas9, 50 nM DNA substrate. On the procedure:
To determine whether synthetic peptides would inhibit Cas9 cleavage activity, 200 peptide sequences were selected for chemical synthesis based on the following criteria: (1) peptides enriched after independent panning on RNP immobilized on both the Monomeric Avidin and NeutrAvidin columns, (2) Higher Boman index (>2.3), the computed potential protein-protein interaction for a given amino-acids sequence (3) a predicted instability index below 50. Theses peptides were screened at 200 μM for inhibition of Cas9 cleavage activity using the recently developed HT FRET-based assay using a dual-quencher substrate with low background and high sensitivity. See Seamon K J, Light Y K, Saada E A, Schoeniger J S, Harmon B. 2018. Versatile High-Throughput Fluorescence Assay for Monitoring Cas9 Activity. Analytical Chemistry 90:6913-6921. This assay specifically measures DNA substrate cleavage, and is able to differentiate between cleavage of a single strand of DNA and cleavage of both DNA strands.
Reactions (10 μL tubes) were set up in Cas9 reaction buffer (20 mM Tris-HCl, pH 7.5, 100 mM NaCl, 5 mM MgCl2, 0.1 mM EDTA) containing 50 nM annealed DNA substrate, 1.5 μM sgRNA, and 500 nM Cas9 in the wells of a black low volume 384-well plate. The reactions were incubated for 1 hour at ambient temperature; then, 10 μL of 8 M Gdn-HCl was added to quench the reaction before the plates were covered with an aluminum seal and incubated at 80° C. for 10 minutes. The fluorescence was read in a Tecan Infinite M1000 or SPARK plate spectrofluorometer (Tecan).
The peptides were diluted 2-fold from 200 to 12.5 μM and incubated for 1 hour with 500 nM SpyCas9, gRNA prior to addition of 50 nM FRET DNA substrate for 1 hour. […] Data are the average ±SD of three replicate wells.
(§1) For the 11 original peptides reactions (10 μL) were set up in Cas9 reaction buffer [20 mM Tris-HCl, pH 7.5, 100 mM NaCl, 5 mM MgCl2, 0.1 mM EDTA] containing 50 nM annealed DNA substrate, 1.5 μM sgRNA, and 0.5 μM Cas9 in the wells of a black low volume 384-well plate. The reactions were incubated for 1 hour at ambient temperature with the indicated concentration of peptide; then, 10 μL, of 8 M Guanidine-HCl was added to quench the reaction. The plates were covered with an aluminum seal and incubated at 75° C. for 10 minutes and cooled down to RT before reading.
(§2) The % inhibition was determined by subtracting normalized relative fluorescent value to Cas9 without peptides (% activity) from 100% cleavage activity of CjeCas9, SauCas9, SpyCas9 by FRET assay. Data are the average ±SD of eleven replicate wells from three technical replicates at the indicated concentration of peptides.
(§3) FIGS. 12A, 12B, and 12C show graphs of measurements and fitted curves of concentration dependent inhibition of mutated peptides against Cas9 variants. The inhibition was measured as relative fluorescent value to Cas9 without peptides (% activity) of CjeCas9 (line with squares), SauCas9 (line with diamonds), SpyCas9 (line with triangles) by FRET assay with the indicated concentration of peptides and compared to original peptides (line with circles). Data are the average ±SD of eleven replicate wells from three technical replicates.

Data set [2] deals with T1, SpyCas9. It is filed as cell-based, S. pyogenes. More on the design: host or cells: protein RNP lipofected into A549 reporter cells. The conditions noted are these: for reduction of SpyCas9 editing (relative % CRISPR editing): A549 GFP reporter cells, 500 ng plasmid 24 h before SpyCas9 RNP, compared to plasmid control; for cell toxicity: A549 reporter cells. From the text: The cell-based reporter assay was generated using an endonuclease surrogate reporter construct expressed in A549 cells. This construct was composed of genes encoding two fluorescent proteins (red fluorescent protein (RFP) and green fluorescent protein (GFP)) linked by the endonuclease targeting sequence. In the absence of endonuclease (e.g. Cas9) expression, the reporter was designed to express the RFP but not GFP as it is placed out of frame. Upon expression of Cas9 with a targeting gRNA, the RNP introduces a double stranded break at the target site upstream of the GFP genes leading to frameshift mutations and expression of GFP (FIG. 7). An AAVS1 protospacer and PAM sequence used for targeting by SpyCas9 RNP is in between the RFP and GFP genes. RNP targeting to the AASV1+PAM sequence in the cell's nucleus results in a DSB and error prone NHEJ will likely cause either of the GFP genes to now become in-frame and induce GFP expression. The expression of GFP is strictly dependent on the presence of nuclease activity from endonucleases that specifically recognizes the target sequence in the reporter construct. A549 reporter cells for SpyCas9 were reverse transfected with 100-500 ng of indicated plasmids using Lipofectamine, the plasmids were at a 1:1 ratio with SpyCas9 RNP. […] After 24 hours the media was changed, and 100-500 ng of SpyCas9 RNP was forward transfected using CRISPRMax (Thermo Fisher).
Editing was assessed at 48 hours and 72 hours post transfection using the CX7 plate imager and/or flow cytometry using an ACCURI C6 flow cytometer (BD BIOSCIENCES) with FCS EXPRESS SOFTWARE (DE NOVO SOFTWARE). Cells were counted as edited if their FL-1 fluorescence was greater than that of the no RNP control. […] Error bars represent ±SD across technical replicates (n=2).

Another data set addresses T2, SauCas9 (Staphylococcus aureus, UniProt J7RUA5).
T2 construct: made in house; host or cells: E. coli BL21(star)DE3
As to the kind of experiment: HT FRET-based Cas9 cleavage activity assay, SauCas9. It is filed as biochemical, S. aureus. As for the experimental part: (§4) To evaluate the ability of identified peptides to inhibit other Cas9 variants, SauCas9 and CjeCas9 cleavage assays were used to quantitatively measure changes in activity. […] The inhibition was measured as relative fluorescent value to Cas9 without peptides (% activity) of CjeCas9 (Top), SauCas9 (middle), SpyCas9 (bottom) by FRET assay with the indicated concentration of peptides. Data are the average ±SD of eleven replicate wells from three technical replicates.
as §1, §2, §3

The target in a further data set is T3, CjeCas9 (Campylobacter jejuni subsp. jejuni serotype O:2, UniProt Q0P897).
T3 construct: made in house; host or cells: E. coli BL21(star)DE3
T3 sequence (Q0P897 whole entry): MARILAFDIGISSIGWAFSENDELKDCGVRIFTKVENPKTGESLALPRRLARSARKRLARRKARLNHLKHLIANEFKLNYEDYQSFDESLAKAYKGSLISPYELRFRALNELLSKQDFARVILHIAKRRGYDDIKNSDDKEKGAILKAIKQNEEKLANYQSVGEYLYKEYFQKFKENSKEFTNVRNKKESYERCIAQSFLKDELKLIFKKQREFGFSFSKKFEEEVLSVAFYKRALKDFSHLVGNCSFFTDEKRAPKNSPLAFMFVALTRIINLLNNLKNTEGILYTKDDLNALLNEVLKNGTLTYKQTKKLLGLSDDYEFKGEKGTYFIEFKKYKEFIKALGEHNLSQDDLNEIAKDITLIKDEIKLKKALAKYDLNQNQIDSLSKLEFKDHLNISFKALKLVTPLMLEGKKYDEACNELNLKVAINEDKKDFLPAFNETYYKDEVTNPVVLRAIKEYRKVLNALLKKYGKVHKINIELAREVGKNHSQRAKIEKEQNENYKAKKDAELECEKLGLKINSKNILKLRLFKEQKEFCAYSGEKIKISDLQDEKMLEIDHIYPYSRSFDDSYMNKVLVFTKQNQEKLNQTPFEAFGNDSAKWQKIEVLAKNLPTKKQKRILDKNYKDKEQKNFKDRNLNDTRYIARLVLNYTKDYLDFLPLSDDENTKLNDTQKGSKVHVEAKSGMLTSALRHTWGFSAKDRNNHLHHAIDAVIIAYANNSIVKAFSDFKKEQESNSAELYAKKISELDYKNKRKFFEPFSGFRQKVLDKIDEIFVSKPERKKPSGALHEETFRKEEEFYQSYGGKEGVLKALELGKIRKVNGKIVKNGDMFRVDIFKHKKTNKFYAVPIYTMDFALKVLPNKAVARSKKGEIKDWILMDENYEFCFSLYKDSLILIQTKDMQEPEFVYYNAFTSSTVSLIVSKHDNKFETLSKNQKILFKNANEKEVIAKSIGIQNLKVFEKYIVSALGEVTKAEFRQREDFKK
As to the kind of experiment: HT FRET-based Cas9 cleavage activity assay, CjeCas9. It is filed as biochemical, C. jejuni. On the procedure: as §4, §1, §2, §3

The target in data set [3] is T1, SpyCas9. As to the kind of experiment: Beacon DNA binding assay (Cas9 RNP binding to DNA substrate). More on the design: species or system S. pyogenes. The settings on record: for binding of SpyCas9 RNP to DNA substrate (beacon fluorescence): peptide 40 μM, SpyCas9 500 nM, DNA substrate 50 nM. On the procedure: To determine the mechanism of action of these peptide inhibitors, a binding assay was performed to determine if inhibitors are blocking Cas9 RNP binding to the DNA substrate. The beacon DNA binding assay was adapted and performed as described in Mekler V, Minakhin L, Semenova E, Kuznedelov K, Severinov K. 2016. Kinetics of the CRISPR-Cas9 effector complex assembly and the role of 3′-terminal segment of guide RNA. Nucleic Acids Res 44:2837-45. DNA probes were prepared from unmodified and chromophore-labeled DNA oligonucleotides synthesized by Integrated DNA Technologies. Equimolar amounts of synthetic complementary strands were mixed in a buffer containing 40 mM Tris, pH 7.9, 100 mM NaCl; heated for 2 min at 90° C. and slowly cooled to 20° C. The PAM-distal ends of the beacon target and non-target strands were labeled with fluorescein and Iowa Black® FQ, respectively. Both beacons mimic native target DNA and bind Cas9/sgRNA. The fluorescent signal is increased when Cas9 binds the DNA substrate and a helix forms with the target substrate strand and gRNA resulting in dissociation of oligo 3, leading to increase in fluorescent signal.
Data are the average ±SD of three replicate wells.

T1 sequence (Q99ZW2 whole entry): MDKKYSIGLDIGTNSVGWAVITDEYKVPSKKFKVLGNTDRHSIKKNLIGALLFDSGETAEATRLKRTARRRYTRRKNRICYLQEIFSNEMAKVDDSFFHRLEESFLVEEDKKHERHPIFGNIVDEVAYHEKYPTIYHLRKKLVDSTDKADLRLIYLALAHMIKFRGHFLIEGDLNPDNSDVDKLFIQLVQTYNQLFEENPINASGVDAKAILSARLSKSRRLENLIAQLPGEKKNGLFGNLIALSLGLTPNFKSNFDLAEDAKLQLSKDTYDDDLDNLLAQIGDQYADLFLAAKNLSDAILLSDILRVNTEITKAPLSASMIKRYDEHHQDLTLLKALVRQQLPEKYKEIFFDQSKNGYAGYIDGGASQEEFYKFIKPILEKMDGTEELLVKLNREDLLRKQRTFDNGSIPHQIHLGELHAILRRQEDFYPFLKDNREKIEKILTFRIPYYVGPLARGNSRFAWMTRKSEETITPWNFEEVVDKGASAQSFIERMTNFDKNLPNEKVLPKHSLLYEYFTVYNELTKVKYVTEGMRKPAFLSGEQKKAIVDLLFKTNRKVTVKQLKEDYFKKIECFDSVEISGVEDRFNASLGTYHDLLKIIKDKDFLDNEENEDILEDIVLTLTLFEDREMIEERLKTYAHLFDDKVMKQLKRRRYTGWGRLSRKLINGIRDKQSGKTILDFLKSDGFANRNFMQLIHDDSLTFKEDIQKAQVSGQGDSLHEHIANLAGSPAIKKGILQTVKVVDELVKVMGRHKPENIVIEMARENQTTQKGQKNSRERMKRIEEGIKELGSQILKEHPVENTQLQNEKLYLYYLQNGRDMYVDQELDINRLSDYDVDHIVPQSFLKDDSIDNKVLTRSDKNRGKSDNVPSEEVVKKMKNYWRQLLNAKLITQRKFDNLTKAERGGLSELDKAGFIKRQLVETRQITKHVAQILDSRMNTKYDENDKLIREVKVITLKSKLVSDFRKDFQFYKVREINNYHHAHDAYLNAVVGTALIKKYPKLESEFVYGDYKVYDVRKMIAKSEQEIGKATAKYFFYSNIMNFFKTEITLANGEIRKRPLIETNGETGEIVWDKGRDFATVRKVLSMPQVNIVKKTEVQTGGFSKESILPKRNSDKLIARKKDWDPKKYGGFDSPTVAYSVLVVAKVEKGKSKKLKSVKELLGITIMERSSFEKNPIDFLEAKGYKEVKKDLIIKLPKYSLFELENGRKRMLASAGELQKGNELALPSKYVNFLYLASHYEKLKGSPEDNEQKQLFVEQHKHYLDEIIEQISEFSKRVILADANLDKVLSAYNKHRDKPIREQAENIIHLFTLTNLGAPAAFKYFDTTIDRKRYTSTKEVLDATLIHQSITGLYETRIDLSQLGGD
T2 sequence (J7RUA5 whole entry): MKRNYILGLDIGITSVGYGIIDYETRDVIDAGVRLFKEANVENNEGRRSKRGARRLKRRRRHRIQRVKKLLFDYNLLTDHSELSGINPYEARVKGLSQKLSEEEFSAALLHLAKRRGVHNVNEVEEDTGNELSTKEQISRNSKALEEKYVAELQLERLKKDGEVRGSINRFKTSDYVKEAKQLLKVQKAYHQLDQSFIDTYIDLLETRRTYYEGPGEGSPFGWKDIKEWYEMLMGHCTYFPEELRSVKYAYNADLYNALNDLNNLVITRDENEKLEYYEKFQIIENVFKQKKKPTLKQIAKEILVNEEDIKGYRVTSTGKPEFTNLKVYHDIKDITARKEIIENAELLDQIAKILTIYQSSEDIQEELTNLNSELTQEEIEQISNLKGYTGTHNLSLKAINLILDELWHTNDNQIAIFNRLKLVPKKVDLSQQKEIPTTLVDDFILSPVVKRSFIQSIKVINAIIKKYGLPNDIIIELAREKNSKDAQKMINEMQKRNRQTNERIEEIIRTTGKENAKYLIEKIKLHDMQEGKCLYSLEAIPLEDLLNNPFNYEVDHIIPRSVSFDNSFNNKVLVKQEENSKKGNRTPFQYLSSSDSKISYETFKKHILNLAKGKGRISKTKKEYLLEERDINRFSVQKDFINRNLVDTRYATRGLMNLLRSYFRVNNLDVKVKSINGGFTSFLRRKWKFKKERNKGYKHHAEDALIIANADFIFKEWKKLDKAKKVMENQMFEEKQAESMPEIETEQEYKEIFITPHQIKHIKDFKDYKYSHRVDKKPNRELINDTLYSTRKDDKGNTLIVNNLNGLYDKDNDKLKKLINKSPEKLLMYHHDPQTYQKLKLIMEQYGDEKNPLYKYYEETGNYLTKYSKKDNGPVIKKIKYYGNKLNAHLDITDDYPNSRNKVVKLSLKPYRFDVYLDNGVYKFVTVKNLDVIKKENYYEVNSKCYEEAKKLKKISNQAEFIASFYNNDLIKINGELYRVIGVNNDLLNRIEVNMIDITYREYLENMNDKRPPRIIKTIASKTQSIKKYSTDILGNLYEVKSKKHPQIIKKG

As to `CC[C@H](C)[C@H](NC(=O)[C@H](CCCNC(=N)N)NC(=O)[C@H](Cc1ccc(O)cc1)NC(=O)[C@H](Cc1ccc(O)cc1)NC(=O)[C@@H](N)CC(C)C)C(=O)N[C@@H](CCSC)C(=O)N[C@@H](CC(C)C)C(=O)N[C@@H](CO)C(=O)N[C@@H](CS)C(=O)N1CCC[C@H]1C(=O)N[C@@H](CCCCN)C(=O)N[C@@H](Cc1ccc(O)cc1)C(=O)N[C@@H](Cc1ccc(O)cc1)C(=O)N1CCC[C@H]1C(=O)N[C@@H](CS)C(=O)N[C@@H](CCC(=O)O)C(=O)N[C@@H](CC(C)C)C(=O)N[C@H](C(=O)NCC(=O)N[C@@H](Cc1c[nH]cn1)C(=O)N[C@H](C(=O)N[C@@H](CO)C(=O)O)[C@@H](C)O)C(C)C` [Peptide 50] (H-LYYRIMLSCPKYYPCELVGHTS-OH), the IC50 at SpyCas9 [1] was determined as 145 µM. For the same compound, on SpyCas9 [2], the “reduction of SpyCas9 editing (relative % CRISPR editing)” value (from here on “reduction … (relative % CRISPR editing)”) was determined as 30±1.4% and the cell toxicity result is “without cell toxicity”.

In the case of “DGSLKILLRYNGCHYRLLQRSL [Peptide 90-3-50]”, the IC50 on SauCas9 is above 200 µM; at SpyCas9 [1], 65.5 µM; at CjeCas9 it was above 200 µM.

For “DRSHKILLCYNGRNKRLLLRRL [Peptide 90-2-18]”, the IC50 on SauCas9 came to 68.2 µM; at SpyCas9 [1] it was 47.2 µM; against CjeCas9, 74.9 µM.

On to DRSHKILLRHSGCLYRFLQRYL [Peptide 90-2-5], for which the IC50 at SauCas9 is 91.3 µM; at SpyCas9 [1], 86.5 µM; at CjeCas9, above 200 µM.

As for DRSHKILLRYNGCHYRLLQRSL [Peptide 90], the IC50 on SpyCas9 [1] amounted to 114 µM. Moreover, at SpyCas9 [2], the “reduction … (relative % CRISPR editing)” value is reported as 35±2.1% and the cell toxicity entry is given as “without cell toxicity”.

As to “DRSQKIFLRYNRCRYRLLQRGL [Peptide 90-1-18]”, the figures for the IC50 at SauCas9, at SpyCas9 [1] and against CjeCas9 were 58.4 µM, 48.4 µM and 73.6 µM, respectively.

Turning to GDPNSRRSHIARLLAMSLTWYS [Peptide 99-1-1], the IC50 on SauCas9 stood at 99.3 µM; at SpyCas9 [1], 63.2 µM; against CjeCas9, 105 µM.

Regarding IAGFRREWFNQNTYFENWHADR [Peptide 15], on SpyCas9 [2], the “reduction … (relative % CRISPR editing)” value is recorded as 21±4.2% and the cell toxicity entry is given as “without cell toxicity”.

As for “KERHRSLMRTTVKYYSLCLGGT [Peptide 82-2-12]”, the IC50 against SauCas9 is 69 µM; on SpyCas9 [1], 35.3 µM; against CjeCas9, 87.1 µM.

Consider KERRRSLMQLSVKSNSLFLGGT [Peptide 82], for which the “mechanism subset: blocks Cas9 RNP binding to target DNA or other mechanism” value (“mechanism subset” below) at SpyCas9 [3] was “inhibit CACs9 RNP cleavage by another mechanism”.

As for “LNVKIENAHLTTNLSTMPLVLC [Peptide 63-2-87]”, the IC50 is above 200 µM against SauCas9, above 200 µM at SpyCas9 [1] and 90.9 µM on CjeCas9.

Regarding LNVKIGNAHLTTIMSTMPLVLC [Peptide 63], the “mechanism subset” value on SpyCas9 [3] is “inhibit CACs9 RNP cleavage by another mechanism”.

LRQISNTSIVMGTTPSSVAVCG [Peptide 61]: the “mechanism subset” value with SpyCas9 [3] is “inhibit CACs9 RNP cleavage by another mechanism”.

As to “PNVKIGKAHLTTIMSTMPLIIC [Peptide 63-2-27]”, the IC50 is 95.3 µM at SauCas9, 81.6 µM on SpyCas9 [1] and above 200 µM at CjeCas9.

In the case of RDPNSRRSHIARLLAMSLTWYS [Peptide 99-2-2], the values for the IC50 against SauCas9, on SpyCas9 [1] and against CjeCas9 were 110 µM, 56.2 µM and above 200 µM, respectively.

Take “RERRRSLIQISVKSYPLFLGGT [Peptide 82-2-28]”: the IC50 against SauCas9 is 153 µM; on SpyCas9 [1] it was 72.5 µM; on CjeCas9, above 200 µM.

In the case of RLYHQCFLACLIDRQSPRNV [Peptide 73], in the data set with SpyCas9 [3], the “mechanism subset” value is “block Cas9 RNP binding to the target DNA” and the “binding of SpyCas9 RNP to DNA substrate (beacon fluorescence)” value was “unaltered; also recorded: did not reduce substrate binding”.

Take RRSHIAWLLAMSLTWYS [Peptide 99]: the “activity of SauCas9 (% activity, FRET)” value at SauCas9 (peptide 100 μM) and at SauCas9 (peptide 200 μM) was “significantly reduced activity” each time. Besides, the “activity of SpyCas9 (% activity, FRET)” value on SpyCas9 [1] (peptide 100 μM) and on SpyCas9 [1] (peptide 200 μM) was “significantly reduced activity” throughout. Also, the “activity of CjeCas9 (% activity, FRET)” value on CjeCas9 (peptide 100 μM) and at CjeCas9 (peptide 200 μM) was “significantly reduced activity” in each case. In addition, on SpyCas9 [3], the “mechanism subset” value was “block Cas9 RNP binding to the target DNA”. At SpyCas9 [3], the “binding of SpyCas9 RNP to DNA substrate (beacon fluorescence)” value was “significantly reduced; also recorded: reducing binding”.

Turning to TESIRSYFAMTIRRNH [Peptide 80], in the data set with SpyCas9 [3], the “mechanism subset” value is “block Cas9 RNP binding to the target DNA”.

VCAFSADESLLIRRRHQRRRAG [Peptide 60]: on SpyCas9 [1], the IC50 stood at 92.2 µM. Moreover, at SpyCas9 [2], the “reduction … (relative % CRISPR editing)” value is given as 30±2.3% and the cell toxicity entry was “without cell toxicity”.

Take “VSAYSADESLLIRRRRRRRRAG [Peptide 60-1-56]”: the results for the IC50 against SauCas9, at SpyCas9 [1] and on CjeCas9 were 62.9 µM, 44.6 µM and 69.2 µM, respectively.
